In EP0326331B1, “Substituted quinolines and cinnolines” (Dow AgroSciences LLC, priority 1988, dated 1989):
Read-outs that look alike come from different tables or passages of the source.

Legend:
[1] = tested on: Puccinia recondita tritici (leaf rust); assay: Test 1 greenhouse foliar spray screen, leaf rust on wheat; type: in vivo; conditions: for LEAF RUST: disease control rating, foliar spray on wheat, 400 ppm (+++ at 100 ppm)
[2] = tested on: Erysiphe graminis tritici (powdery mildew); assay: Test 1 greenhouse foliar spray screen, powdery mildew on wheat; type: in vivo; conditions: for POWD MDEW: disease control rating, foliar spray on wheat, 400 ppm (+++ at 100 ppm)
corn rootworm = assay: Mite/insect screen, CRW; type: in vivo; conditions: percent mortality, read-out: CRW RESULTS %
How it was run: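 Corn rootworm mortality (%) was evaluated following standard exposure times. Test material was emulsified by dissolution in acetone/alcohol (1:1) containing sulfonate/nonionic emulsifier blends TOXIMUL R (23 g/L) and TOXIMUL S (13 g/L), and water-diluted to the indicated doses.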

[3] = tested on: Botrytis cinerea (gray mold); assay: Test 1 greenhouse foliar spray screen, gray mold on grape berries; type: in vivo; conditions: for GRAY MOLD: disease control rating, spray on grape berries, 400 ppm (+++ at 100 ppm)
[4] = tested on: melon aphids (Aphis gossypii Glover); assay: Mite/insect screen, MA; type: in vivo; conditions: Aphis gossypii, percent mortality, read-out: MA RESULTS %
How it was run: (§1)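 Percent mortality was scored after standard exposure periods, following spraying of leaves to runoff (both surfaces, 10 psi, 1 h drying) with water dilutions of compound in emulsifier-containing acetone/alcohol (50:50). Armyworms received excised treated leaves in dishes.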

Sphaerotheca fuliginea = assay: Field tests against plant pathogens; type: in vivo; conditions: field test, crop cucumber
Source text: (§2) Selected compounds were field tested against a variety of plant pathogens. […]

Rhynchosporium secalis = assay: Field tests against plant pathogens; type: in vivo; conditions: field test, crop barley
Source text: as §2

Plasmopara viticola = assay: Field tests against plant pathogens; type: in vivo; conditions: field test, crop grape
Source text: as §2

Pyrenophora teres = assay: Field tests against plant pathogens; type: in vivo; conditions: field test, crop barley
Source text: as §2

Alternaria brassica = assay: Field tests against plant pathogens; type: in vivo; conditions: field test, crop rape
Source text: as §2

Phytophthora infestans = type: in vivo; conditions: field test
CUCURBIT DOWNY MILDEW = assay: Greenhouse combination test with known fungicide, foliar spray; conditions: 1-9 rating scale
Description: (§3) The test compounds were formulated for application by dissolving 50 mg of the compound into 1.25 ml of solvent. The solvent was prepared by mixing 50 ml of "Tween 20" with 475 ml of acetone and 475 ml of ethanol. The solvent/compound solution was diluted to 125 ml with deionized water. The resulting formulation contains 400 ppm test chemical. Lower concentrations were obtained by serial dilution with the solvent-surfactant mixture.
(§4) The formulated technical compounds were sprayed on all foliar surfaces of the host plants (or cut berry) to past run-off. Single pots of each host plant were placed on raised, revolving pedestals in a fume hood. Test solutions were sprayed on all foliar surfaces. All treatments were allowed to dry and the plants were inoculated with the appropriate pathogens within 2-4 hours.
(§5) In the tables, the time given under "Time in hours" is the number of hours elapsing between treatment and inoculation. […] In such cases, curative activity was being tested. […] In such cases, residual or protectant activity was tested. […] The results were evaluated on a 1-9 rating scale. These ratings represent the following percent disease control: 1 = 0-19%, 2 = 20-29%, 3 = 30-39%, 4 = 40-59%, 5 = 60-74%, 6 = 75-89%, 7 = 90-96%, 8 = 97-99%, and 9 = 100%.

[5] = tested on: Venturia inaequalis (apple scab); assay: Test 1 greenhouse foliar spray screen, apple scab on apple seedling; type: in vivo; conditions: for APPL SCAB: disease control rating, foliar spray on apple seedling, 400 ppm (+++ at 100 ppm)
[6] = tested on: Septoria tritici (leaf blotch); assay: Test 1 greenhouse foliar spray screen, leaf blotch on wheat; type: in vivo; conditions: for LEAF BLOT: disease control rating, foliar spray on wheat, 400 ppm (+++ at 100 ppm)
[7] = tested on: Pseudoperonospora cubensis (downy mildew); assay: Test 1 greenhouse foliar spray screen, downy mildew on squash; type: in vivo; conditions: for DOWN MDEW: disease control rating, foliar spray on squash, 400 ppm (+++ at 100 ppm); for activity against downy mildew: summary statement in the description
[8] = tested on: Twospotted spider mites (Tetranychus urticae Koch); assay: Mite/insect screen, SM; type: in vivo; conditions: Tetranychus urticae, percent mortality, read-out: SM RESULTS %
How it was run: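 Read-out: percent mortality after standard exposure periods. Test solutions were water dilutions of compound dissolved in acetone/alcohol (50:50) with emulsifier blends; leaves were sprayed to runoff on both surfaces and air-dried for one hour before exposure.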

CUCURBIT POWDERY MILDEW = assay: Greenhouse combination test with known fungicide, foliar spray; conditions: 1-9 rating scale, time 4 hours
Description: as §3, §4, §5

[9] = tested on: Pyricularia oryzae (rice blast); assay: whole plant or invertebrate; type: in vivo; conditions: for RICE BLAST: disease control rating, foliar spray on rice, 400 ppm (+++ at 100 ppm); for activity against rice blast: summary statement in the description
[10] = tested on: southern armyworm (Spodopetra eridania Cramer); assay: Mite/insect screen, SAW; type: in vivo; conditions: Spodoptera eridania, percent mortality, read-out: SAW RESULTS %
How it was run: as §1

Puccinia recondita = assay: Field tests against plant pathogens; type: in vivo; conditions: field test, crop wheat
Source text: as §2

[11] = tested on: Cercospora beticola (leaf spot); assay: Test 1 greenhouse foliar spray screen, leaf spot on sugar beet; type: in vivo
Piricularia oryzae = type: in vivo; conditions: field test, crop rice
Uncinula necator = assay: Field tests against plant pathogens; type: in vivo; conditions: field test, crop grape
Source text: as §2

[12] = tested on: Erysiphe graminis tritici; assay: Field tests against plant pathogens; type: in vivo; conditions: field test, crop wheat
Source text: as §2

Podosphaera leucotricha = assay: Field tests against plant pathogens; type: in vivo; conditions: field test, crop apple
Source text: as §2

[13] = tested on: Pseudocercosporella herpotrichoides; assay: Field tests against plant pathogens; type: in vivo; conditions: field test, crop wheat
Source text: as §2

plant pathogens = assay: Fungicidal efficacy against a broad spectrum of plant pathogens (summary of screen); type: in vivo; conditions: summary statement in the description
[14] = foliar, rate 200 ppm, foliar spray on squash

Row | SMILES | LEAF RUST [1] | POWD MDEW [2] | mortality at 12 ppm (corn rootworm; CRW RATE 12.00 PPM) | GRAY MOLD [3] | mortality at 200 ppm ([4]; SAW, SM & MA RATE 200 PPM) | pathogens against which compounds of the invention showed activity (Sphaerotheca fuliginea) | pathogens against which compounds of the invention showed activity (Rhynchosporium secalis) | pathogens against which compounds of the invention showed activity (Plasmopara viticola) | pathogens against which compounds of the invention showed activity (Pyrenophora teres) | pathogens against which compounds of the invention showed activity (Alternaria brassica) | APPL SCAB [5] | LEAF BLOT [6] | DOWN MDEW [7] | activity against downy mildew [7] | mortality at 200 ppm ([8]; SAW, SM & MA RATE 200 PPM) | RICE BLAST [9] | activity against rice blast [9] | mortality at 200 ppm ([10]; SAW, SM & MA RATE 200 PPM) | other results
1 | Fc1cccc2c(NCCc3ccccc3)ccnc12 [Example 5, 8-fluoro-N-(2-phenylethyl)-4-quinolinamine] | +++ (90-100% control at 100 ppm) | ++ (90-100% control at 400 ppm) | 0% | - (0-19% control at 400 ppm) | 0% | Sphaerotheca fuliginea | Rhynchosporium secalis | Plasmopara viticola | Pyrenophora teres | Alternaria brassica | - (0-19% control at 400 ppm) | +++ (90-100% control at 100 ppm) | +++ (90-100% control at 100 ppm) | particularly excellent activity | 0% | ++ (90-100% control at 400 ppm) | particularly excellent activity | 0% | pathogens against which compounds of the invention showed activity (Phytophthora infestans; crop potato): Phytophthora infestans; pathogens against which compounds of the invention showed activity (Phytophthora infestans; crop tomato): Phytophthora infestans; RESULTS (CUCURBIT DOWNY MILDEW; Ex. 5 alone 6.00 ppm, time 4 hours): 1.0; RESULTS (CUCURBIT DOWNY MILDEW; Ex. 5 alone 12.00 ppm, time 4 hours): 7.0; RESULTS (CUCURBIT DOWNY MILDEW; Ex. 5 alone 24.00 ppm, time 4 hours): 7.5; RESULTS (CUCURBIT DOWNY MILDEW; Ex. 5 alone 48.00 ppm, time 4 hours (treatment before inoculation)): 8.0; RESULTS (CUCURBIT POWDERY MILDEW; Ex. 5 alone 6.00 ppm): 1.0; RESULTS (CUCURBIT POWDERY MILDEW; Ex. 5 alone 12.00 ppm): 1.0; RESULTS (CUCURBIT POWDERY MILDEW; Ex. 5 alone 24.00 ppm): 5.0; RESULTS (CUCURBIT POWDERY MILDEW; Ex. 5 alone 48.00 ppm): 6.0
2 | Fc1cccc2c(NCCc3ccc4ccccc4c3)ccnc12 [Example 159, 8-fluoro-N-[2-(2-naphthyl)ethyl]-4-quinolinamine] | +++ (90-100% control at 100 ppm) | ++ (90-100% control at 400 ppm) | 0% | - (0-19% control at 400 ppm) | 0% | – | Rhynchosporium secalis | Plasmopara viticola | – | – | - (0-19% control at 400 ppm) | +++ (90-100% control at 100 ppm) | +++ (90-100% control at 100 ppm) | particularly excellent activity | 0% | +++ (90-100% control at 100 ppm) | – | 0% | pathogens against which compounds of the invention showed activity (Puccinia recondita): Puccinia recondita; LEAF SPOT ([11]; disease control rating, foliar spray on sugar beet, 400 ppm (+++ at 100 ppm)): + (20-89% control at 400 ppm)
3 | Cc1ccc(CCOc2ccnc3c(F)cccc23)cc1 [Example 212, 8-fluoro-4-[2-(4-methylphenyl)ethoxy]quinoline] | – | – | – | – | – | Sphaerotheca fuliginea | Rhynchosporium secalis | Plasmopara viticola | Pyrenophora teres | Alternaria brassica | – | – | – | particularly excellent activity | – | – | particularly excellent activity | – | pest or weed control at 400 ppm ([1]; Puccinia recondita, foliar, Test 1, foliar spray on wheat, disease control rating at 400 ppm / 100 ppm): 90 to 100%; pathogens against which compounds of the invention showed activity (Piricularia oryzae): Piricularia oryzae; pest or weed control at 400 ppm ([2]; Blumeria graminis, foliar, Test 1, foliar spray on wheat, disease control rating at 400 ppm / 100 ppm, read-out: POWD MDEW): 90 to 100%; mortality at 12 ppm (corn rootworm; CRW rate 12.00 ppm): 0%; pest or weed control at 400 ppm ([3]; Botrytis cinerea, foliar, Test 1, spray on grape berries, disease control rating at 400 ppm / 100 ppm): 0 to 19%; mortality at 200 ppm [4, 14]: 0%; pathogens against which compounds of the invention showed activity (Uncinula necator): Uncinula necator; pathogens against which compounds of the invention showed activity [12]: Erysiphe graminis tritici; pathogens against which compounds of the invention showed activity (Podosphaera leucotricha): Podosphaera leucotricha; pathogens against which compounds of the invention showed activity [13]: Pseudocercosporella herpotrichoides; pest or weed control at 400 ppm ([5]; Venturia inaequalis, Test 1, foliar spray on apple seedling, disease control rating at 400 ppm / 100 ppm, read-out: APPL SCAB): 90 to 100%; pest or weed control at 400 ppm ([6]; Zymoseptoria tritici, Test 1, foliar spray on wheat, disease control rating at 400 ppm / 100 ppm, read-out: LEAF BLOT): 90 to 100%; activity against a broad spectrum of plant pathogens (plant pathogens): particularly excellent activity; pest or weed control at 400 ppm ([7]; Pseudoperonospora cubensis, foliar, Test 1, foliar spray on squash, disease control rating at 400 ppm / 100 ppm, read-out: DOWN MDEW): 90 to 100%; mortality at 200 ppm [8, 14]: 0%; pest or weed control at 400 ppm ([9]; Pyricularia oryzae, foliar, read-out: RICE BLAST, Test 1, foliar spray on rice, disease control rating at 400 ppm / 100 ppm): 90 to 100%; mortality at 200 ppm [10, 14]: 0%; pest or weed control at 400 ppm ([11]; Cercospora beticola, Test 1, foliar spray on sugar beet, disease control rating at 400 ppm / 100 ppm): 0 to 19%
